Molecules are shown by their SMILES. Where “and” joins values, the source holds several entries; their conditions need not be identical. Equal values may be shown once.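 Method: 48-hour compound exposure of cells in 96-well plates, five concentrations, linear interpolation of endpoints. GI50 is the concentration that inhibits growth by half. TGI: total growth inhibition.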

Test systems include KM12 colon; NCI-H522 lung; M14 melanoma; OVCAR-4 ovarian; HOP-62 NSCLC; COLO 205 colon; SK-MEL-2 melanoma; HT29 colon; TK-10 renal; NCI-H226 lung.
Holding throughout (test): growth of human tumour cells (NCI), 48 h

As to `COc1c(O)cc2c(c1CC=C(C)C)OC(=O)c1c(cc(O)c(CC=C(C)C)c1O)O2`, the GI50 is 4.12 µM in the assay with KM12 colon; 4.16 µM with NCI-H522 lung; 4.22 µM in the assay with M14 melanoma; 4.04 µM in the assay on OVCAR-4 ovarian; 4.19 µM in the assay with HOP-62 NSCLC; 4.51 µM in the assay with COLO 205 colon. Moreover, the GI50 in the assay on SK-MEL-2 melanoma was 4.38 µM; in the assay with HT29 colon, 4.39 µM; with TK-10 renal it was 5.49 µM; in the assay on NCI-H226 lung, 4.51 µM. Also, the TGI in the assay on KM12 colon was 7.71 µM; with NCI-H522 lung it was 8.06 µM; with M14 melanoma, 8.5 µM; with OVCAR-4 ovarian it was 7.61 µM; in the assay on HOP-62 NSCLC it was 7.72 µM; with COLO 205 colon, 8.45 µM. The TGI is 8.58 µM in the assay on SK-MEL-2 melanoma, 8.7 µM in the assay on HT29 colon, 11.7 µM with TK-10 renal and 8.86 µM in the assay with NCI-H226 lung.
On to `OCC(O)COc1ccc(F)cc1` (stereo not drawn), for which the TGI in the assay on KM12 colon, with NCI-H522 lung, in the assay with M14 melanoma, in the assay with OVCAR-4 ovarian, in the assay on HOP-62 NSCLC and in the assay on COLO 205 colon was more than 100 µM throughout. In addition, the TGI in the assay on SK-MEL-2 melanoma, in the assay on HT29 colon, in the assay on TK-10 renal and in the assay on NCI-H226 lung was more than 100 µM each time.
In the case of `COC(=O)CCC(=O)C(CC(=O)OC)C(=O)CCC(=O)NCCc1ccccc1` (stereo not drawn), the TGI with KM12 colon, in the assay on NCI-H522 lung, in the assay with M14 melanoma, in the assay on OVCAR-4 ovarian, in the assay on HOP-62 NSCLC and in the assay on COLO 205 colon was more than 100 µM each time. The TGI with SK-MEL-2 melanoma, in the assay on HT29 colon, in the assay with TK-10 renal and in the assay on NCI-H226 lung was more than 100 µM throughout.
On to `CC1=CC=C2C(C)(C)CC[C@@H]3OC(=O)[C@H]1[C@]23C`, for which the TGI in the assay with KM12 colon, in the assay with NCI-H522 lung, in the assay on M14 melanoma, with OVCAR-4 ovarian, in the assay on HOP-62 NSCLC and with COLO 205 colon was more than 100 µM throughout. The TGI in the assay with SK-MEL-2 melanoma, in the assay with HT29 colon, with TK-10 renal and in the assay with NCI-H226 lung was more than 100 µM each time.
Turning to `CCC(CO)COC(=O)/C=C/C(=O)OCC(CC)CO` (stereo not drawn), the TGI in the assay on KM12 colon, in the assay on NCI-H522 lung, with M14 melanoma, in the assay on OVCAR-4 ovarian, with HOP-62 NSCLC and in the assay with COLO 205 colon was more than 100 µM in each case. Moreover, the TGI in the assay on SK-MEL-2 melanoma, with HT29 colon, in the assay with TK-10 renal and in the assay on NCI-H226 lung was more than 100 µM in each case.
As for `CC[C@@]1(O)C(=O)OCc2c1cc1n(c2=O)Cc2cc3c(OC)cccc3nc2-1`, the TGI worked out at 5.86 µM with KM12 colon; 2.12 µM in the assay on NCI-H522 lung; 1.61 µM in the assay on M14 melanoma; 11.9 µM in the assay with OVCAR-4 ovarian; 5.25 µM with COLO 205 colon; 2.6 µM in the assay with SK-MEL-2 melanoma. Besides, the TGI in the assay on HT29 colon is more than 43.7 µM; in the assay on TK-10 renal it was 50 µM; in the assay with NCI-H226 lung, 0.078 µM and 0.445 µM. In addition, the GI50 with NCI-H522 lung is 0.028 µM; in the assay on M14 melanoma, 0.00323 µM; with HOP-62 NSCLC, 0.000532 µM and < 0.215 µM; in the assay with NCI-H226 lung it was 0.00806 µM.
For `Cc1cc2c(=O)cc(-c3ccc(O)cc3)oc2c(C(=O)O)c1C`, the TGI in the assay with KM12 colon, with NCI-H522 lung, with M14 melanoma, in the assay with OVCAR-4 ovarian, with HOP-62 NSCLC and in the assay on COLO 205 colon was more than 100 µM in each case. For the same compound, the TGI in the assay on SK-MEL-2 melanoma, in the assay with HT29 colon, in the assay with TK-10 renal and in the assay with NCI-H226 lung was more than 100 µM each time.
As to `CCOC(=O)Nc1nc(-c2ccccc2)c(C)s1`, the TGI with KM12 colon, in the assay with NCI-H522 lung, with M14 melanoma, in the assay on OVCAR-4 ovarian, in the assay with HOP-62 NSCLC and with COLO 205 colon was more than 100 µM throughout. In addition, the TGI in the assay with SK-MEL-2 melanoma, with HT29 colon, in the assay with TK-10 renal and with NCI-H226 lung was more than 100 µM each time.
As to `COc1cc2c3c(n(CCCNC(C)(C)CO)c(=O)c2cc1OC)-c1cc2c(cc1C3=O)OCO2`, the GI50 is 2.19 µM with KM12 colon; 0.448 µM with NCI-H522 lung; 0.754 µM with M14 melanoma; 11.3 µM in the assay on OVCAR-4 ovarian; 0.131 µM with HOP-62 NSCLC; 12.8 µM in the assay on COLO 205 colon. In addition, the GI50 in the assay on SK-MEL-2 melanoma is 30.8 µM; with HT29 colon, 1.08 µM; in the assay on TK-10 renal it was 13 µM; in the assay with NCI-H226 lung it was 0.392 µM. In addition, the TGI was more than 100 µM with KM12 colon; more than 21.8 µM in the assay on NCI-H522 lung; 19 µM in the assay on M14 melanoma; 42.1 µM with OVCAR-4 ovarian; 5.14 µM with HOP-62 NSCLC; more than 67.5 µM in the assay with COLO 205 colon. Moreover, the TGI is more than 78.5 µM in the assay with SK-MEL-2 melanoma, more than 100 µM in the assay on HT29 colon, 38.6 µM with TK-10 renal and 8.33 µM in the assay on NCI-H226 lung.
For `Cc1cccc2c1NC(=O)[C@@H](NC(=O)[C@H](CCC(F)(F)F)[C@H](CCC(F)(F)F)C(N)=O)N=C2c1cccc(F)c1`, the GI50 in the assay with KM12 colon was more than 100 µM; in the assay with NCI-H522 lung, 16.6 µM; in the assay with M14 melanoma, 73.2 µM; in the assay on OVCAR-4 ovarian, 22.4 µM; in the assay on HOP-62 NSCLC it was 25.8 µM; in the assay with COLO 205 colon, more than 100 µM. Besides, the GI50 was 41.5 µM in the assay on SK-MEL-2 melanoma, more than 100 µM in the assay with HT29 colon, 34.7 µM in the assay with TK-10 renal and 17 µM in the assay with NCI-H226 lung. Moreover, the TGI was more than 100 µM in the assay with KM12 colon; 53.7 µM with NCI-H522 lung; more than 100 µM in the assay on M14 melanoma; 61.9 µM with OVCAR-4 ovarian; 92.1 µM with HOP-62 NSCLC; more than 100 µM in the assay on COLO 205 colon. Further, the TGI with SK-MEL-2 melanoma is more than 100 µM; in the assay on HT29 colon it was more than 100 µM; in the assay with TK-10 renal it was more than 100 µM; in the assay on NCI-H226 lung, 73.4 µM.

(Values after PubChem BioAssay (NCI).)
